assay: HCV replicon assay (luciferase reporter, ET cell line); format: cell-based; conditions: Hepatitis C virus, HCV replicon luciferase activity in ET cells
Procedure, shortened: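 EC50 and, via WST-1 cytotoxicity, TC50 were fitted with a Hill-coefficient equation to % inhibition across 10 two-fold dilutions. Compounds at 0.1 nM-[…] with 0.5% DMSO were applied 24 h post-seeding to replicon-bearing ET cells (luc-ubi-neo/NS3-5B, adaptive mutations). Firefly luciferase signal was measured after 48-72 h.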

Point of comparison: O=C(c1nc2c(C(F)(F)F)cc(-c3ccoc3)cn2c1Cl)N1CCC(c2ccccc2Cl)CC1 [Compound 541, (3-Chloro-6-furan-3-yl-8-trifluoromethyl-imidazo[1,2-a]pyridin-2-yl)-[4-(2-chloro-phenyl)-piperidin-1-yl]-methanone], inhibition at 10 µM 89.7%. Against it:
- O=C(c1nc2c(C(F)(F)F)cc(-c3cn[nH]c3)cn2c1Br)N1CCC(c2nccs2)C1 (stereo not shown) [Compound 432, [3-Bromo-6-(1H-pyrazol-4-yl)-8-trifluoromethyl-imidazo[1,2-a]pyridin-2-yl]-(3-thiazol-2-yl-pyrrolidin-1-yl)-methanone] — higher, 96.5%
- O=C(c1nc2c(C(F)(F)F)cc(-c3ccoc3)cn2c1Cl)N1CCCC1c1ccccn1 (stereo not shown) [Compound 331, (3-Chloro-6-furan-3-yl-8-trifluoromethyl-imidazo[1,2-a]pyridin-2-yl)-(2-pyridin-2-yl-pyrrolidin-1-yl)-methanone] — lower, 53.3%
- O=C(O)Cc1c(C(=O)N2CCC(c3ccc(F)cc3)C2)nc2c(C(F)(F)F)cc(-c3ccoc3)cn12 (stereo not shown) [Compound 236, {2-[3-(4-Fluoro-phenyl)-pyrrolidine-1-carbonyl]-6-furan-3-yl-8-trifluoromethyl-imidazo[1,2-a]pyridin-3-yl}-acetic Acid] — lower, 49%
- Cn1nccc1C1=CCN(C(=O)c2nc3c(C(F)(F)F)cc(-c4ccoc4)cn3c2Cl)CC1 [Compound 586, (3-Chloro-6-furan-3-yl-8-trifluoromethyl-imidazo[1,2-a]pyridine-2-yl)-[4-(2-methyl-2H-pyrazol-3-yl)-3,6-dihydro-2H-pyridin-1-yl]-methanone] — lower, 86%
- CN1CCN(C(=O)c2nc3c(C(F)(F)F)cc(-c4ccco4)cn3c2Cl)CC1c1ccccc1 (stereo not shown) [Compound 318, (3-Chloro-6-furan-2-yl-8-trifluoromethyl-imidazo[1,2-a]pyridin-2-yl)-(4-methyl-3-phenyl-piperazin-1-yl)-methanone] — lower, 62.4%
- O=C(c1nc2c(C(F)(F)F)cc(-c3ccoc3)cn2c1Cl)N1CC(NS(=O)(=O)c2ccccc2)C1 [Compound 492, N-[1-(3-Chloro-6-furan-3-yl-8-trifluoromethyl-imidazo[1,2-a]pyridine-2-carbonyl)-azetidin-3-yl]-benzenesulfonamide] — higher, 97.4%
- N#Cc1ccccc1C1CCN(C(=O)c2nc3c(C(F)(F)F)cc(-c4ccoc4)cn3c2Cl)CC1 [Compound 540, 2-[1-(3-Chloro-6-furan-3-yl-8-trifluoromethyl-imidazo[1,2-a]pyridine-2-carbonyl)-piperidin-4-yl]-benzonitrile] — higher, 98.6%
- N#Cc1c(F)cccc1C1=CCN(C(=O)c2nc3c(C(F)(F)F)cc(-c4ccoc4)cn3c2Cl)CC1 [Compound 614, 2-[1-(3-Chloro-6-furan-3-yl-8-trifluoromethyl-imidazo[1,2-a]pyridine-2-carbonyl)-1,2,3,6-tetrahydro-pyridin-4-yl]-6-fluoro-benzonitrile] — the same, 89.7%
- O=C(N[C@H]1C[C@@H]1c1ccccc1)c1nc2c(C(F)(F)F)cc(-c3ccco3)cn2c1Cl (stereo in doubt) [Compound 188, 3-Chloro-6-furan-2-yl-8-trifluoromethyl-imidazo[1,2-a]pyridine-2-carboxylic acid (2-phenyl-cyclopropyl)-amide] — lower, 80.5%
- O=C(c1nc2c(C(F)(F)F)cc(-c3ccoc3)cn2c1Cl)N1CCN(c2ccc(F)cc2)CC1 [Compound 530, (3-Chloro-6-furan-3-yl-8-trifluoromethyl-imidazo[1,2-a]pyridine-2-yl)-[4-(4-fluoro-phenyl)-piperazin-1-yl]-methanone] — lower, 80.3%
- O=C(c1nc2c(C(F)(F)F)cc(-c3ccoc3)cn2c1Cl)N1CCC(c2cscn2)CC1 [Compound 557, (3-Chloro-6-furan-3-yl-8-trifluoromethyl-imidazo[1,2-a]pyridin-2-yl)-(4-thiazol-4-yl-piperidin-1-yl)-methanone] — higher, 93%
- O=C(NCc1cccs1)c1nc2c(C(F)(F)F)cc(-c3cn[nH]c3)cn2c1-c1cn[nH]c1 [Compound 485, 3,6-Bis-(1H-pyrazol-4-yl)-8-trifluoromethyl-imidazo[1,2-a]pyridine-2-carboxylic acid (thiophen-2-ylmethyl)-amide] — lower, 58.9%
- O=C1OC(c2ccccc2)CN1Cc1cn2cc(-c3ccoc3)cc(C(F)(F)F)c2n1 (stereo not shown) [Compound 483, 3-(6-Furan-3-yl-8-trifluoromethyl-imidazo[1,2-a]pyridin-2-ylmethyl)-5-phenyl-oxazolidin-2-one] — higher, 99.9%
- O=C(c1nc2c(C(F)(F)F)cc(-c3cn[nH]c3)cn2c1Cl)N1CCC(c2cccc(F)c2)C1 (stereo not shown) [Compound 258, [3-Chloro-6-(1H-pyrazol-4-yl)-8-trifluoromethyl-imidazo[1,2-a]pyridin-2-yl]-[3-(3-fluoro-phenyl)-pyrrolidin-1-yl]-methanone] — higher, 91%
- O=C(Nc1ccccc1)Nc1nc2c(C(F)(F)F)cc(-c3ccco3)cn2c1Cl [Compound 211, 1-(3-Chloro-6-furan-2-yl-8-trifluoromethyl-imidazo[1,2-a]pyridin-2-yl)-3-phenyl-urea] — lower, 51.8%
- O=C(c1nc2c(C(F)(F)F)cc(-c3cn[nH]c3)cn2c1Cl)N1CCC(c2ccccc2)C1 (stereo not shown) [Compound 464, [3-Chloro-6-(1H-pyrazol-4-yl)-8-trifluoromethyl-imidazo[1,2-a]pyridin-2-yl]-(3-phenyl-pyrrolidin-1-yl)-methanone] — higher, 93.7%
- O=C(c1nc2c(C(F)(F)F)cc(-c3cn[nH]c3)cn2c1Cl)N1CCC(c2ccccc2F)C1 (stereo not shown) [Compound 257, [3-Chloro-6-(1H-pyrazol-4-yl)-8-trifluoromethyl-imidazo[1,2-a]pyridin-2-yl]-[3-(2-fluoro-phenyl)-pyrrolidin-1-yl]-methanone] — higher, 92.2%
- O=C(NCc1cccs1)c1nc2c(C(F)(F)F)cc(-c3cccnc3)cn2c1Cl [Compound 208, 3-Chloro-6-pyridin-3-yl-8-trifluoromethyl-imidazo[1,2-a]pyridine-2-carboxylic acid (thiophen-2-ylmethyl)-amide] — lower, 88.5%
- N#Cc1cc(-c2cn[nH]c2)cn2c(Cl)c(C(=O)NCc3cccs3)nc12 [Compound 379, 3-Chloro-8-cyano-6-(1H-pyrazol-4-yl)-imidazo[1,2-a]pyridine-2-carboxylic Acid (thiophen-2-ylmethyl)-amide] — lower, 80.8%
- O=C(NCc1cccs1)c1nc2c(C(F)(F)F)cc(-c3ccccc3)cn2c1Br [Compound 139, 3-Bromo-6-phenyl-8-trifluoromethyl-imidazo[1,2-a]pyridine-2-carboxylic Acid (thiophen-2-ylmethyl)-amide] — higher, 97.9%
- O=C(NCc1cccc(C(F)(F)F)c1)c1nc2c(C(F)(F)F)cc(-c3ccco3)cn2c1Cl [Compound 180, 3-Chloro-6-furan-2-yl-8-trifluoromethyl-imidazo[1,2-a]pyridine-2-carboxylic acid 3-trifluoromethyl-benzylamide] — lower, 20.4%
- N#Cc1ccccc1C1CCN(C(=O)c2nc3c(C(F)(F)F)cc(-c4cn[nH]c4)cn3c2Cl)CC1 [Compound 607, 2-{1-[3-Chloro-6-(1H-pyrazol-4-yl)-8-trifluoromethyl-imidazo[1,2-a]pyridine-2-carbonyl]-piperidin-4-yl}-benzonitrile] — higher, 92.2%
- O=C(c1nc2c(C(F)(F)F)cc(-c3ccoc3)cn2c1Cl)N1CC=C(c2cn[nH]c2)CC1 [Compound 579, (3-Chloro-6-furan-3-yl-8-trifluoromethyl-imidazo[1,2-a]pyridin-2-yl)-[4-(1-1H-pyrazol-4-yl)-3,6-dihydro-2H-pyridin-1-yl)-methanone] — higher, 97.6%
- CN(C)CCOc1ccc(CNC(=O)c2nc3c(C(F)(F)F)cc(-c4ccco4)cn3c2Cl)cc1 [Compound 214, 3-Chloro-6-furan-2-yl-8-trifluoromethyl-imidazo[1,2-a]pyridine-2-carboxylic Acid 4-(2-dimethylamino-ethoxy)-benzylamide] — lower, 49%
- CN(C)c1cc(-c2ccccc2)cc2cc(C(=O)NCc3cccs3)nn12 [Compound 150, 7-dimethylamino-5-phenyl-pyrazolo[1,5-a]pyridine-2-carboxylic Acid (thiophen-2-ylmethyl)-amide] — lower, 43.5%
- O=C(c1nc2c(C(F)(F)F)cc(-c3ccoc3)cn2c1Cl)N1CC=C(c2c(F)cccc2F)CC1 [Compound 564, (3-Chloro-6-furan-3-yl-8-trifluoromethyl-imidazo[1,2-a]pyridin-2-yl)-[4-(2,6-difluoro-phenyl)-3,6-dihydro-2H-pyridin-1-yl)-methanone] — higher, 99%
- O=C(c1nc2c(C(F)(F)F)cc(-c3cn[nH]c3)cn2c1Cl)N1CC[C@@H](c2ccccc2)C1 [Compound 465, [3-Chloro-6-(1H-pyrazol-4-yl)-8-trifluoromethyl-imidazo[1,2-a]pyridin-2-yl]-(3-(S)-phenyl-pyrrolidin-1-yl)-methanone] — higher, 97.9%
- O=C(NCc1ccc(F)cc1)NCc1cn2cc(-c3ccoc3)cc(C(F)(F)F)c2n1 [Compound 397, 1-(4-Fluoro-benzyl)-3-(6-furan-3-yl-8-trifluoromethyl-imidazo[1,2-a]pyridine-2-ylmethyl)-urea] — lower, 21.9%
- O=C(c1nc2c(C(F)(F)F)cc(-c3ccoc3)cn2c1Cl)N1CC(NS(=O)(=O)c2ccccc2F)C1 [Compound 494, N-[1-(3-Chloro-6-furan-3-yl-8-trifluoromethyl-imidazo[1,2-a]pyridine-2-carbonyl)-azetidin-3-yl]-2-fluoro-benzenesulfonamide] — lower, 88.5%
- N#Cc1c(F)ccc(F)c1C1=CCN(C(=O)c2nc3c(C(F)(F)F)cc(-c4ccoc4)cn3c2Cl)CC1 [Compound 635, 2-(1-{[3-chloro-6-(furan-3-yl)-8-(trifluoromethyl)imidazo[1,2-a]pyridin-2-yl]carbonyl}-1,2,3,6-tetrahydropyridin-4-yl)-3,6-difluorobenzonitrile] — higher, 95.9%

Source: patent US20120121540A1 (priority 2007, published 2012)
